Test [1] deals with JAK2/JAK2 homdimeric complex (Homo sapiens (Human), UniProt O60674). In words: GM-CSF Induced pSTAT5 in Human PBMC. The format is cell-based. To be noted: GM-CSF 5 ng/mL for 20 minutes, pSTAT5 by MSD, read-out: PBMC_GMCSF_pSTAT5 IC50.
Test [2] addresses human TYK2 (JH2domain-pseudokinase) (Homo sapiens (Human), UniProt P29597). In words: TYK2 JH2 Domain Binding Assay (KINOMEscan). In outline:
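Pseudokinase domain binding was measured by qPCR of tagged, bead-retained kinase after 1 h room-temperature competition, with 0.9% DMSO and compound up to 30,000 nM in 3-fold steps. Hill-equation Kd, duplicate.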

For test [3], the target named is Tyk2 kinase domain (DH1) (Homo sapiens (Human), UniProt P29597). The test is described as follows: Tyk2 Radioactive Kinase Assay. To be noted: for inhibition at 10 µM: read-out: Tyk2 JH1% Inhibition @ 10 μM. Format: biochemical. The method, boiled down:
(§1)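 Read-out is percent inhibition from a radioactive kinase reaction, measured with compound at 10 μM.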

Test [4] has as its target JAK2 kinase domain (JH1) (Homo sapiens (Human), UniProt O60674). In words: JAK2 Radioactive Kinase Assay. Format: biochemical. To be noted: for inhibition at 10 µM: read-out: JAK2 JH1% Inhibition @ 10 μM. The method, boiled down: as §1

Read-outs that look alike come from different tables or passages of the source.

Chain of JAK2 kinase domain (JH1) (O60674 849-1124): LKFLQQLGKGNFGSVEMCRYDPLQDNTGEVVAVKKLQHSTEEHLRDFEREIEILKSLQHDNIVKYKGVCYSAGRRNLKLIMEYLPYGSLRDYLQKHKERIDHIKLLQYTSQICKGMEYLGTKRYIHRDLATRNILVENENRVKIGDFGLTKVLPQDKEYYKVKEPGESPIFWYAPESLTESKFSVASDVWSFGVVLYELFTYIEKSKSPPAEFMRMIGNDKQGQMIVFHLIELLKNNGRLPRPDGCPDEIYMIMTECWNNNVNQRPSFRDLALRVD
Chain of human TYK2 (JH2domain-pseudokinase) (P29597 556-888): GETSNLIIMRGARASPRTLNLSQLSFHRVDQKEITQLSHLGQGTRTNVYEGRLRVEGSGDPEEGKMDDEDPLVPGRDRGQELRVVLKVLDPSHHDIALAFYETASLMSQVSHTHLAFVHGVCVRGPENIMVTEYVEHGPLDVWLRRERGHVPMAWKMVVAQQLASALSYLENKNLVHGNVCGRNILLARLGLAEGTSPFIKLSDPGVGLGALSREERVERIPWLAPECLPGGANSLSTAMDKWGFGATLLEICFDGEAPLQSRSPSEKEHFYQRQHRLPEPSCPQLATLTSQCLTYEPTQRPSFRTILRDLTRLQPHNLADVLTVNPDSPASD
Chain of JAK2/JAK2 homdimeric complex (O60674 whole entry, the tested form may be a part): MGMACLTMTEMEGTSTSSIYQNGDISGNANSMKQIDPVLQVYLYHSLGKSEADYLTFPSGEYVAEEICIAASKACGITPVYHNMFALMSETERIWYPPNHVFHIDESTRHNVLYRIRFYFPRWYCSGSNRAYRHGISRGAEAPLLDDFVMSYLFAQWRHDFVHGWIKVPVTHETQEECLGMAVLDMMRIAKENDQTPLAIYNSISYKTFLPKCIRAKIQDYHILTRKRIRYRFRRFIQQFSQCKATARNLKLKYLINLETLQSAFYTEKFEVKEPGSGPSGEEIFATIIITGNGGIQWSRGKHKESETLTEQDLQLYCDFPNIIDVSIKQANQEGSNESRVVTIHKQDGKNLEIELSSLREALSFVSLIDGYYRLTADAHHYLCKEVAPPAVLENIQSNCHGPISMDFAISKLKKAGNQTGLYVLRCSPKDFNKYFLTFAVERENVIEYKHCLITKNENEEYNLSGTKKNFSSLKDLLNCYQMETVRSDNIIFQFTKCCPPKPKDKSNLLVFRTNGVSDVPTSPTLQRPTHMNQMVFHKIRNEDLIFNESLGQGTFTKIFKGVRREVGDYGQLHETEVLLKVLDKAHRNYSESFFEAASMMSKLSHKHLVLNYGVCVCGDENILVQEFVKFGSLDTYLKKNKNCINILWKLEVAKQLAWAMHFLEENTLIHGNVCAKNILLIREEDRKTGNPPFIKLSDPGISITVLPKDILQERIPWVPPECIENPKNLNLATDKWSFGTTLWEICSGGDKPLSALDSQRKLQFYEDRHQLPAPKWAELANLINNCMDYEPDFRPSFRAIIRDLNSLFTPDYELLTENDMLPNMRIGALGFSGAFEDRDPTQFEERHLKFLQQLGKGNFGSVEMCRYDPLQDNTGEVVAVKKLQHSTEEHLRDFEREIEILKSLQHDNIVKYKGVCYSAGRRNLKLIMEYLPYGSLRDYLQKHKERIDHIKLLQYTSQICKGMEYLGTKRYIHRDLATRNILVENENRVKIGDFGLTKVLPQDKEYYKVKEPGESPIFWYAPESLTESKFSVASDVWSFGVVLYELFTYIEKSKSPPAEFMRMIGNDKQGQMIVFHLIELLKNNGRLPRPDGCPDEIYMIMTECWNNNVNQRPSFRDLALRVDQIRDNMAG
Chain of JAK2/JAK2 homdimeric complex (P32927 17-897 partner): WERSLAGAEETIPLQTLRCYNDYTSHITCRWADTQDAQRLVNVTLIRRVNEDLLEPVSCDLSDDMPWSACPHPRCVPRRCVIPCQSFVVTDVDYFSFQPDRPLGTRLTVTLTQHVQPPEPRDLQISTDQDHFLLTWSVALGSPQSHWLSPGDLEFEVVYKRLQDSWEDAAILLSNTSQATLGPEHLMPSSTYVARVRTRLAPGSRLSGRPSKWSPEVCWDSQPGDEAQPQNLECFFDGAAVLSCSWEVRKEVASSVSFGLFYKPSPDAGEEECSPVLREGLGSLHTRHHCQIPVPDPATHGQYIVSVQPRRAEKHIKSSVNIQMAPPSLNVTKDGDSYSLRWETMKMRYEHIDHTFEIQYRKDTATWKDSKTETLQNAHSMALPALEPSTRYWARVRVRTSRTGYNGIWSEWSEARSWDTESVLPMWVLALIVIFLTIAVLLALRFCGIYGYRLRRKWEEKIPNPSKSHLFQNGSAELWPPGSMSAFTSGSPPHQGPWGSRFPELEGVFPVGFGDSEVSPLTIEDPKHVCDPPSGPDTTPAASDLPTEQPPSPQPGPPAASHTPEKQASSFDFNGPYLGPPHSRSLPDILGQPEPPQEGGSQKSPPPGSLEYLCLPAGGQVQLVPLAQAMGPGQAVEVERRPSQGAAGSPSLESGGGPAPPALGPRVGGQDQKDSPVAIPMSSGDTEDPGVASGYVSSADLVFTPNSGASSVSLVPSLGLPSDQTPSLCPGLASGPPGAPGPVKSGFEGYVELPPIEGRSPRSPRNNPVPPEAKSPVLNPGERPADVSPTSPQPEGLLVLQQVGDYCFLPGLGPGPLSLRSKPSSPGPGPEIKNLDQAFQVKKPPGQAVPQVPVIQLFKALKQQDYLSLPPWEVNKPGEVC
Chain of Tyk2 kinase domain (DH1) (P29597 897-1176): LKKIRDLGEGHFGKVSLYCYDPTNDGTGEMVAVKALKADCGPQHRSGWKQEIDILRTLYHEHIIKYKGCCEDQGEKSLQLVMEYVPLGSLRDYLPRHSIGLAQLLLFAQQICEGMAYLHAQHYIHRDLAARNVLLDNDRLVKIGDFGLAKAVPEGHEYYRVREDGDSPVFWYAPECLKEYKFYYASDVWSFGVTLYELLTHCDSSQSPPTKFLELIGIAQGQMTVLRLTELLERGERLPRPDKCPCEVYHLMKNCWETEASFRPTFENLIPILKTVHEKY

Usually IC50 stands for the concentration needed to halve the response being measured. Usually Kd stands for the constant that tells how readily two partners part at equilibrium. A high value points to weaker binding. The inhibition is the drop in the measured response relative to a control, in per cent. For `CNc1cc(Nc2cc(Cl)cn(-c3cnn(C)c3F)c2=O)nc2c(C(=O)NC3CC3)cnn12` [I-955], in test [1], the half-inhibitory concentration (IC50) is above 12.5 µM. For the same compound, the Kd in test [2] is below 0.0002 µM. The inhibition at 10 µM in test [3] (10 μM compound, 10 μM ATP) is below 50%; in test [4] (10 μM compound, 10 μM ATP), below 50%.
As for `[2H]C([2H])([2H])Oc1ncccc1Nc1cc(NC)n2ncc(C(=O)NC3CC3)c2n1` [I-175, N-cyclopropyl-5-((2-(methoxy-d3)pyridin-3-yl)amino)-7-(methylamino) pyrazolo[1,5-a]pyrimidine-3-carboxamide], the IC50 in test [1] is above 12.5 µM.
The same measure, in the same setting: to `CNc1cc(Nc2cccn(-c3cccnc3)c2=O)nc2c(C(=O)N[C@H]3CC[C@@H]3OC)cnn12` [I-864] belongs above 50 µM.
Take `CNc1cc(Nc2cccn([C@@H]3CCCOC3)c2=O)nc2c(C(=O)N[C@@H]3CC[C@H]3OC)cnn12` [I-902, N-((1R,2R)-2-methoxycyclobutyl)-7-(methylamino)-5-((2-oxo-1-((R)-tetrahydro-2H-pyran-3-yl)-1,2-dihydropyridin-3-yl)amino)pyrazolo[1,5-a]pyrimidine-3-carboxamide]: the half-maximal inhibitory concentration (IC50) in test [1] is above 50 µM. Besides, in test [4] (10 μM compound, 10 μM ATP), the “JAK2 JH1% Inhibition @ 10 μM” value was “A (percent inhibition at 10 μM lower than 50)”.
In the case of `CNc1cc(Nc2cccn(-c3ccc(F)cn3)c2=O)nc2c(C(=O)N[C@@H]3CC[C@H]3OC)cnn12` [I-817], the IC50 in test [1] was above 2.5 µM.
Take `CNc1cc(Nc2cccn([C@@H]3CCCOC3)c2=O)nc2c(C(=O)NC3CCC3OC)cnn12` (mixture of isomers) [I-814, N-(-2-methoxycyclobutyl)-7-(methylamino)-5-((2-oxo-1-((R)-tetrahydro-2H-pyran-3-yl)-1,2-dihydropyridin-3-yl)amino)pyrazolo[1,5-a]pyrimidine-3-carboxamide]: the IC50 in test [1] was above 50 µM. For the same compound, in test [4] (10 μM compound, 10 μM ATP), the inhibition at 10 µM was below 50%.
As to `CNc1cc(Nc2cccn(C3CCOCC3)c2=O)nc2c(C(=O)N[C@H]3CC[C@@H]3OC)cnn12` [I-1014], the IC50 in test [1] is above 50 µM.
The same measure, in the same setting: the value for `CNc1cc(Nc2cccn(C(C)C)c2=O)nc2c(C(=O)N[C@@H]3CC[C@H]3OC)cnn12` [I-917] was above 50 µM.
With `CNc1cc(Nc2cccn([C@H]3[C@@H]4COC[C@@H]43)c2=O)nc2c(C(=O)N[C@H]3CC[C@@H]3OC)cnn12` [I-1088], in test [1], the IC50 is above 50 µM. In addition, the inhibition at 10 µM in test [3] (10 μM compound, 10 μM ATP) is below 50%; in test [4] (10 μM compound, 10 μM ATP), below 50%.
Turning to `CNc1cc(Nc2cccnc2OC)nc2c(C(=O)NOC(C)(C)C)cnn12` [I-612, N-(tert-butoxy)-5-((2-methoxypyridin-3-yl)amino)-7-(methylamino) pyrazolo[1,5-a]pyrimidine-3-carboxamide], the IC50 in test [1] was above 50 µM. In addition, in test [4], the inhibition at 10 µM is below 50%.
In the case of `CNc1cc(Nc2cccn(-c3ccc(F)cn3)c2=O)nc2c(C(=O)N[C@H]3CC[C@@H]3OC)cnn12` [I-926], in test [1], the IC50 was above 2.5 µM.
Consider `CNc1cc(Nc2cccnc2OC)nc2c(C(=O)NC3CC3)cnn12` [I-8], for which, in test [1], the IC50 was above 50 µM.
The same measure, in the same setting: to `CNc1cc(Nc2cccn([C@H]3CC[C@H](OC)CC3)c2=O)nc2c(C(=O)N[C@H]3CC[C@@H]3OC)cnn12` [I-1062] belongs above 50 µM.
On the same count and under the same terms, to `CNc1cc(Nc2cccn(-c3cnc(C)o3)c2=O)nc2c(C(=O)N[C@@H]3CC[C@H]3OC)cnn12` [I-895] belongs above 50 µM.
`CNc1cc(Nc2cccn(-c3nc(C)co3)c2=O)nc2c(C(=O)N[C@H]3CC[C@@H]3OC)cnn12` [I-975]: the half-inhibitory concentration (IC50) in test [1] is above 50 µM.
For the compound `CNc1cc(Nc2cccn(-c3ccccn3)c2=O)nc2c(C(=O)N[C@@H]3CC[C@H]3OC)cnn12` (stereo in doubt) [I-816, N-(2-methoxycyclobutyl)-7-(methylamino)-5-((2-oxo-2H-[1,2′-bipyridin]-3-yl)amino)pyrazolo[1,5-a]pyrimidine-3-carboxamide], in test [1], the IC50 is above 2.5 µM. Besides, the inhibition at 10 µM in test [3] and in test [4] was below 50% throughout.
Regarding `CNc1cc(Nc2cccn(-c3ncco3)c2=O)nc2c(C(=O)N[C@@H]3CC[C@H]3OC)cnn12` [I-1398], the IC50 in test [1] was above 50 µM.
Consider `CCONC(=O)c1cnn2c(NC)cc(Nc3cccn(-c4ncccc4F)c3=O)nc12` [I-798, N-ethoxy-5-((3′-fluoro-2-oxo-2H-[1,2′-bipyridin]-3-yl)amino)-7-(methylamino) pyrazolo[1,5-a]pyrimidine-3-carboxamide], for which the concentration for half-maximal inhibition (IC50) in test [1] is above 50 µM. For the same compound, the inhibition at 10 µM in test [4] is below 50%.
Regarding `CNc1cc(Nc2cccn([C@@H]3CCC[C@@H](OC)C3)c2=O)nc2c(C(=O)NC3CC3)cnn12` [I-957], in test [1], the IC50 was above 50 µM. The “Tyk2 JH1% Inhibition @ 10 μM” value in test [3] (10 μM compound, 10 μM ATP) is recorded as “A (percent inhibition at 10 μM lower than 50)”. The “JAK2 JH1% Inhibition @ 10 μM” value in test [4] (10 μM compound, 10 μM ATP) is recorded as “A (percent inhibition at 10 μM lower than 50)”.
With `CNc1cc(Nc2cccn([C@H]3CCCOC3)c2=O)nc2c(C(=O)N[C@@H]3CC[C@H]3OC)cnn12` [I-815], in test [1], the half-inhibitory concentration (IC50) was above 12.5 µM. In addition, in test [4] (10 μM compound, 10 μM ATP), the inhibition at 10 µM is below 50%.
With `CNc1cc(Nc2cccn([C@H]3CCCOC3)c2=O)nc2c(C(=O)N[C@H]3CC[C@@H]3OC)cnn12` [I-877], the half-maximal inhibitory concentration (IC50) in test [1] was above 50 µM. In addition, the inhibition at 10 µM in test [4] (10 μM compound, 10 μM ATP) was below 50%.
In the case of `CNc1cc(Nc2cccn(-c3ccccn3)c2=O)nc2c(C(=O)N[C@@H]3CC[C@H]3OC)cnn12` [I-908, N-((1R,2R)-2-methoxycyclobutyl)-7-(methylamino)-5-((2-oxo-2H-[1,2′-bipyridin]-3-yl)amino)pyrazolo[1,5-a]pyrimidine-3-carboxamide], the IC50 in test [1] is above 50 µM. Besides, the “Tyk2 JH1% Inhibition @ 10 μM” value in test [3] (10 μM compound, 10 μM ATP) was “A (percent inhibition at 10 μM lower than 50)”. Further, in test [4] (10 μM compound, 10 μM ATP), the “JAK2 JH1% Inhibition @ 10 μM” value is given as “A (percent inhibition at 10 μM lower than 50)”.
As for `CNc1cc(Nc2cccn([C@H]3CCC[C@@H](OC)C3)c2=O)nc2c(C(=O)N[C@@H]3CC[C@H]3O)cnn12` [I-993], the IC50 in test [1] was above 50 µM. Moreover, the “Tyk2 JH1% Inhibition @ 10 μM” value in test [3] (10 μM compound, 10 μM ATP) is “A (percent inhibition at 10 μM lower than 50)”. The “JAK2 JH1% Inhibition @ 10 μM” value in test [4] (10 μM compound, 10 μM ATP) is “A (percent inhibition at 10 μM lower than 50)”.
As to `CNc1cc(Nc2cccn(C(C)C)c2=O)nc2c(C(=O)N[C@H]3CC[C@@H]3OC)cnn12` [I-980], the IC50 in test [1] was above 50 µM.
On the same count and under the same terms, to `CNc1cc(Nc2cccn(-c3nc(C)co3)c2=O)nc2c(C(=O)N[C@H]3CC[C@@H]3OC)cnn12` [I-890] belongs above 12.5 µM.
As for `CNc1cc(Nc2cccn(-c3cncc(F)c3)c2=O)nc2c(C(=O)N[C@H]3CC[C@@H]3OC)cnn12` [I-984], the IC50 in test [1] is above 50 µM. The “JAK2 JH1% Inhibition @ 10 μM” value in test [4] (10 μM compound, 10 μM ATP) is “A (percent inhibition at 10 μM lower than 50)”.
Take `CNc1cc(Nc2cccn(-c3ccc(F)cc3)c2=O)nc2c(C(=O)NC3CC3)cnn12` [I-107, N-cyclopropyl-5-((1-(4-fluorophenyl)-2-oo-1,2-dihydropyridin-3-yl)amino)-7-(methylamino)pyrazolo[1,5-a]pyrimidine-3-carboxamide]: in test [1], the IC50 is above 2.5 µM.
On to `CNc1cc(Nc2cccn(-c3ccccn3)c2=O)nc2c(C(=O)N[C@H]3CC[C@@H]3O)cnn12` [I-971], for which, in test [1], the IC50 was above 50 µM. Moreover, the inhibition at 10 µM in test [3] (10 μM compound, 10 μM ATP) was below 50%; in test [4] (10 μM compound, 10 μM ATP), below 50%.
Turning to `CNc1cc(Nc2cc(C)cc(C)c2)nc2c(C(=O)NC3CC3)cnn12` [I-1, N-cyclopropyl-5-((3,5-dimethylphenyl)amino)-7-(methylamino)pyrazolo[1,5-a]pyrimidine-3-carboxamide], the IC50 in test [1] was above 50 µM.
Same read-out and setting: the value for `CNc1cc(Nc2cccn(-c3ncccc3F)c2=O)nc2c(C(=O)NC3CC3)cnn12` [I-143] was above 50 µM.
In the case of `CNc1cc(Nc2cccc(C3CCCOC3)n2)nc2c(C(=O)NC3CC3)cnn12` (centres unmarked) [I-508], the Kd in test [2] was in the range of 0.0002 to 0.001 µM. Besides, the inhibition at 10 µM in test [3] (compound at 10 μM, ATP 10 μM) was below 50%; in test [4] (compound at 10 μM, ATP 10 μM), below 50%.
In the case of `CNc1cc(Nc2cccn(C3CCOCC3)c2=O)nc2c(C(=O)NCC(C)(C)CO)cnn12` [I-509], the Kd in test [2] was below 0.0002 µM. Moreover, the inhibition at 10 µM in test [3] (compound at 10 μM, ATP 10 μM) was below 50%; in test [4] (compound at 10 μM, ATP 10 μM) it was below 50%.
Take `CNc1cc(Nc2cccn([C@H]3CC[C@H](OC)CC3)c2=O)nc2c(C(=O)N[C@@H]3CC[C@H]3OC)cnn12` [I-1378]: the IC50 in test [1] is above 50 µM.
The compound `CNc1cc(Nc2cccn([C@H]3CCC[C@@H]3OC)c2=O)nc2c(C(=O)NC3CC3)cnn12` [I-403] showed a Kd in test [2] of 0.0002 to 0.001 µM. In addition, the inhibition at 10 µM in test [3] (compound at 10 μM, ATP 10 μM) is below 50%; in test [4] (compound at 10 μM, ATP 10 μM) it was below 50%.
Compound `CNc1cc(Nc2cccn([C@H]3CCOC3)c2=O)nc2c(C(=O)NC3CCC3)cnn12` [I-205] returned a Kd in test [2] below 0.0002 µM. Further, the inhibition at 10 µM in test [3] (compound at 10 μM, ATP 10 μM) was below 50%; in test [4] (compound at 10 μM, ATP 10 μM), below 50%.
`CNc1cc(Nc2cccn(C3CCN(C)CC3)c2=O)nc2c(C(=O)NC3CC3)cnn12` [I-348] had a Kd in test [2] of 0.0002 to 0.001 µM. Moreover, the inhibition at 10 µM in test [3] (compound at 10 μM, ATP 10 μM) is below 50%; in test [4] (compound at 10 μM, ATP 10 μM) it was below 50%.
Turning to `CNc1cc(Nc2cccn([C@@H]3CCCOC3)c2=O)nc2c(C(=O)N[C@H]3CCC[C@H](O)C3)cnn12` [I-703], the dissociation constant Kd in test [2] was below 0.0002 µM. Moreover, the inhibition at 10 µM in test [3] (compound at 10 μM, ATP 10 μM) is below 50%; in test [4] (compound at 10 μM, ATP 10 μM), below 50%.
For the compound `CNc1cc(Nc2cccnc2OC(C)C)nc2c(C(=O)NC3CC3)cnn12` [I-146], in test [2], the dissociation constant (Kd) lay within 0.0002 to 0.001 µM. The inhibition at 10 µM was below 50% in test [3] (compound at 10 μM, ATP 10 μM) and below 50% in test [4] (compound at 10 μM, ATP 10 μM).

The record behind these values is patent US10508120B2, “TYK2 inhibitors and uses thereof” (Nimbus Lakshmi, Inc., priority 2017, dated 2019).
